Holding throughout (type): ADME
Data set [1] addresses T1, Cytochrome P450 2B6 (Homo sapiens, UniProt P20813).
T1 sequence (P20813 whole entry): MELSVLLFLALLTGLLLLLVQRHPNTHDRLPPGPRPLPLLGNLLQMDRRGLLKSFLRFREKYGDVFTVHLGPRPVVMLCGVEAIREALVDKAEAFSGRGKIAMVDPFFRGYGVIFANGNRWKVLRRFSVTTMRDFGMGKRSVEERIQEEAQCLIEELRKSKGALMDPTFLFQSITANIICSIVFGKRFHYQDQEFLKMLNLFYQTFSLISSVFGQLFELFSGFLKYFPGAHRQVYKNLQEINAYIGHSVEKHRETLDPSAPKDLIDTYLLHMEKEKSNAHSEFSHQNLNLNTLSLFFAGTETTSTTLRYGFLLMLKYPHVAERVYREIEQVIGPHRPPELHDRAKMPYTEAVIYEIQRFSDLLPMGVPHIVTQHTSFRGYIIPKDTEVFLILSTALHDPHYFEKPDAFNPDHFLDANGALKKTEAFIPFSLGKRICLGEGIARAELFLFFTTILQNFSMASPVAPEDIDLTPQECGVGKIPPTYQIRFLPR
In words: Inactivation of C-terminal His4-tagged human CYP2B6 lacking 21 N-terminal residues expressed in Escherichia coli C41 (DE3) assessed as decreases in fluorescence intensity of 7-hydroxy-4-trifluoromethylcoumarin at 5 to 100 uM at 37 degC. To be noted: TDE = time-dependent effect.

Data set [2] addresses T1, Cytochrome P450 2B6. In words: Inactivation of C-terminal His4-tagged human CYP2B6 lacking 21 N-terminal residues expressed in Escherichia coli C41 (DE3) assessed as decreases in fluorescence intensity of 7-hydroxy-4-trifluoromethylcoumarin up to 30 mins at 37 degC. Particulars: 0.5 h; call rule not given here.
Data set [3] deals with T2, CYP2B6 (Homo sapiens, UniProt P20813).
T2 sequence (P20813 whole entry): T1 sequence (P20813 whole entry)
In words: Inactivation of C-terminal His4-tagged human CYP2B6 lacking 21 N-terminal residues assessed as decrease in enzyme catalytic activity at 100 uM for 15 mins by spectral analysis in presence of NADPH.

The target of data set [4] is T1, Cytochrome P450 2B6. In words: Irreversible inactivation of C-terminal His4-tagged human CYP2B6 lacking 21 N-terminal residues assessed as decrease in enzyme catalytic activity measured after overnight dialysis at 100 uM for 15 mins by spectral analysis in presence of NADPH. Particulars: 0.25 h.
Data set [5] deals with T1, Cytochrome P450 2B6. In words: Irreversible inactivation of C-terminal His4-tagged human CYP2B6 lacking 21 N-terminal residues assessed as decrease in CO difference spectrum measured after overnight dialysis at 100 uM for 15 mins by spectral analysis in presence of NADPH. To be noted: 0.25 h.

For the compound `CCC(=O)C(CC(C)N(C)C)(c1ccccc1)c1ccccc1` (racemic) [METHADONE], the “inhibition (INH)” value in data set [1] is “tde”; in data set [2], “Dose-dependent effect”; in data set [4], “Active”; in data set [5], “Active”. Besides, the inhibition (usually the percentage by which the read-out fell short of the control) at 0.25 h, 100 µM in data set [3] was determined as 58%.

Values taken from ChEMBL document CHEMBL3526042, “Mechanism-based inactivation of cytochrome P450 2B6 by methadone through destruction of prosthetic heme” (Drug Metab Dispos, 2012).
